# Test results taken from patent publication US12600725B2 (Memorial Sloan-Kettering Cancer Center, priority 2013, dated 2026).
# Entries after “also recorded” stand apart in the source; their conditions may differ.
# How the values were obtained:
# Trap-1 = biological target: T1, Trap-1 (Homo sapiens, UniProt Q12931)
# T1 sequence (Q12931 60-704): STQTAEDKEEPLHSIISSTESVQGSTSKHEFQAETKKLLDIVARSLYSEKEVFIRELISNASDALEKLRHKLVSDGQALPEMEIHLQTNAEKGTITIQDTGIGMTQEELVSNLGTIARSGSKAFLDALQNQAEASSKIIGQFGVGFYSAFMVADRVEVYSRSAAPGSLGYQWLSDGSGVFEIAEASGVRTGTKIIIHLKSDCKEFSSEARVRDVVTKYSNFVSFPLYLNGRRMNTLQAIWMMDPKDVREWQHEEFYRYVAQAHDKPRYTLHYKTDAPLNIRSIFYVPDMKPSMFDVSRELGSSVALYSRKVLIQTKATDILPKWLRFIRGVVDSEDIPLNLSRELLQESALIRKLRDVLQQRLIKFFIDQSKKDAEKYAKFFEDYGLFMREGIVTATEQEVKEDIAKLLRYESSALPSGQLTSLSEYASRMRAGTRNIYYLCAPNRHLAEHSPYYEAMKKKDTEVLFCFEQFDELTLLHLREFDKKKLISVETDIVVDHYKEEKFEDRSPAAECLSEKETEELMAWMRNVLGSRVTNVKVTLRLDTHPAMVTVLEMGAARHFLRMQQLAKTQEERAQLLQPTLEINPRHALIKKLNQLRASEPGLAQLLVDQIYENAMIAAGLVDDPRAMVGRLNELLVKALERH
# Grp94 = details: Hsp90 vs Grp94
# [1] = system: HER2 at the plasma membrane of SKBr3 cells; experiment: Immunofluorescence of HER2 architecture at the plasma membrane; format: cell-based
# Protocol: We next investigated the biological significance of the unique association of HER^2 with Grp94 at the plasma membrane of SKBr3 cells. Because the Grp94 inhibitors described here target the ATP-binding pocket of Grp94, they affect Grp94 chaperone activity. Therefore we hypothesized that Grp94 may act on HER^2 at the plasma membrane to stabilize the protein and to regulate its function.
# Immunofluorescence. Cells were seeded and grown onto culture slides (BD Falcon) for 24 hrs. After washing with cold PBS, cells were fixed by treating at 4° C. for 20 min with 4% paraformaldehyde in PBS, permeabilized with 0.1% Triton X-100 in PBS containing 10% FBS for 10 min, and blocked with 2% BSA for 1 hr. After washing for four times with PBS, primary antibodies were added onto the chambers and cell were incubated overnight at 4° C., washed again with PBS followed by incubation with the secondary antibody for 1 hr at room temperature. Cell were washed and then mounted and observed under microscope (Leica Upright Confocal SP5). The primary antibodies used in the assay are against: HER^2 (Zymed, 28004), Grp94 (Stressgen, SPA-850), Hsp70 (Stressgen, SPA-810), LAMP1-FITC (Abcam, ab25406), EEA1 (Abcam, ab70521), 58K Golgi-FITC (Abcam, ab27043) and Calnexin (BD, 610523).
decrease in binding efficacy for Trap-1 (Trap-1; relative to Hsp90) [fold],Structure (SMILES),loss of affinity for Trap-1 (Trap-1; Hsp90 vs Trap-1) [log],loss of affinity for Grp94 (Grp94),effect on HER2 architecture at the plasma membrane [1]
–,CN(C)c1cc2c(cc1Sc1nc3c(N)nccc3n1CCNCC(C)(C)C)OCO2 [CUDC-305/Debio092],~2,approximately 10 fold,–
–,CS(=O)(=O)CCNCc1ccc(-c2ccc3ncnc(Nc4ccc(OCc5cccc(F)c5)c(Cl)c4)c3c2)o1 [lapatinib],–,–,does not disrupt the HER^2 architecture at the plasma membrane; also recorded: No such effect was observed
–,CC1(C)CC(=O)c2c(C(F)(F)F)nn(-c3ccc(C(N)=O)c(N[C@H]4CC[C@H](O)CC4)c3)c2C1 [SNX-2112],–,approximately 10 fold,–
5,COc1c(C)cnc(Cn2cnc3c(Cl)nc(N)nc32)c1C [BIIB021],–,approximately 10 fold,–
